Measured values: patent publication US20200237746A1, “HSP90 TARGETED CONJUGATES AND PARTICLE FORMULATIONS THEREOF” (TARVEDA THERAPEUTICS, INC., priority 2017, published 2020)
“And” between values parts separate entries of the source, which are not always exact repeats. Equal values may be shown once.

Assays:
Log P of Compound A = assay type: physicochemical; conditions: approximate value
[1] = system: NCI-H69 xenograft model (small cell lung cancer); test: Efficacy in NCI-H69 xenograft model: tumor volumes and tumor growth inhibition; assay type: in vivo, mice
Excerpt: Efficacies of Compound A alone or formulated in nanoparticles were studied with NCI-H69 xenograft model (small cell lung cancer).

in vivo = conditions: rat, 1 mg/kg
Protocol: In addition, rat plasma concentrations of Compound A and Compound A in NP04 formulation were measured over time.

[2] = Compound A 25 mg/kg days 1 and 8, Day 5
[3] = Compound A 25 mg/kg days 1 and 8, Day 8
[4] = Compound A 25 mg/kg days 1 and 8, Day 16
[5] = Compound A 25 mg/kg days 1 and 8, Day 19
[6] = Compound A 50 mg/kg days 1 and 8, Day 5, 50 mg/kg
[7] = Compound A 50 mg/kg days 1 and 8, Day 8, 50 mg/kg
[8] = Compound A 50 mg/kg days 1 and 8, Day 11, 50 mg/kg
[9] = Compound A 50 mg/kg days 1 and 8, Day 16, 50 mg/kg
[10] = Compound A 50 mg/kg days 1 and 8, Day 19, 50 mg/kg
[11] = Compound A 50 mg/kg days 1 and 8, Day 22, 50 mg/kg
[12] = Compound A 150 mg/kg days 1 and 8, Day 5, 150 mg/kg
[13] = Compound A 150 mg/kg days 1 and 8, Day 8, 150 mg/kg
[14] = Compound A 150 mg/kg days 1 and 8, Day 11
[15] = Compound A 150 mg/kg days 1 and 8, Day 11, 150 mg/kg
[16] = Compound A 150 mg/kg days 1 and 8, Day 16, 150 mg/kg
[17] = Compound A 150 mg/kg days 1 and 8, Day 19, 150 mg/kg
[18] = Compound A 150 mg/kg days 1 and 8, Day 22, 150 mg/kg

With `CCc1c2c(nc3ccc(OC(=O)N4CCC(CCn5ccc6cc(-n7c(O)nnc7-c7cc(C(C)C)c(O)cc7O)ccc65)CC4)cc13)-c1cc3c(c(=O)n1C2)COC(=O)[C@]3(O)CC` [Compound A, (S)-4,11-diethyl-4-hydroxy-3,14-dioxo-3,4,12,14-tetrahydro-1H-pyrano[3′,4′:6,7]indolizino[1,2-b]quinolin-9-yl 4-(2-(5-(3-(2,4-dihydroxy-5-isopropylphenyl)-5-hydroxy-4H-1,2,4-triazol-4-yl)-1H-indol-1-yl)ethyl)piperidine-1-carboxylate] the logP (Log P of Compound A) was ~6.7, the “TV Mean” value ([1]; Compound A 25 mg/kg days 1 and 8, Day 1) was 273.4 mm3 and the TGI % [1, 2] was 2.8%. For the same compound, the “TV Mean” value [1, 2] was 390.6 mm3, the TGI % [1, 3] was 24.9% and the “TV Mean” value [1, 3] was 423.8 mm3. For the same compound, the “TV Mean” value ([1]; Compound A 25 mg/kg days 1 and 8, Day 11) was 383.2 mm3, the TGI % ([1]; Compound A 25 mg/kg days 1 and 8, Day 11, 25 mg/kg) was 47% and the TGI % [1, 4] was 69.3%. For the same compound, the “TV Mean” value [1, 4] was 345.4 mm3, the TGI % [1, 5] was 72.2% and the “TV Mean” value [1, 5] was 387.4 mm3. The “TV Mean” value ([1]; Compound A 25 mg/kg days 1 and 8, Day 22) was 510.4 mm3, the TGI % ([1]; Compound A 25 mg/kg days 1 and 8, Day 22, 25 mg/kg) was 70% and the “TV Mean” value ([1]; Compound A 25 mg/kg days 1 and 8, Day 26) was 654.4 mm3. The “TV Mean” value ([1]; Compound A 25 mg/kg days 1 and 8, Day 31) was 866.4 mm3, the “TV Mean” value ([1]; Compound A 50 mg/kg days 1 and 8, Day 1) was 273.3 mm3 and the TV individual animal ([1]; Compound A 50 mg/kg days 1 and 8, Day 1, 50 mg/kg) was 222 mm3 and 255 mm3. The “TV Mean” value ([1]; Compound A 50 mg/kg days 1 and 8, Day 5) was 360.1 mm3, the TGI % [1, 6] was 10.42% and 10.4% and the TV individual animal [1, 6] was 293 mm3. The “TV Mean” value ([1]; Compound A 50 mg/kg days 1 and 8, Day 8) was 377.9 mm3, the TGI % [1, 7] was 33.02% and 33% and the TV individual animal [1, 7] was 336 mm3. For the same compound, the “TV Mean” value ([1]; Compound A 50 mg/kg days 1 and 8, Day 11) was 267.8 mm3, the TGI % [1, 8] was 62.98% and 63% and the TV individual animal [1, 8] was 202 mm3. For the same compound, the “TV Mean” value ([1]; Compound A 50 mg/kg days 1 and 8, Day 16) was 166.4 mm3, the TGI % [1, 9] was 85.23% and 85.2% and the TV individual animal [1, 9] was 136 mm3. For the same compound, the “TV Mean” value ([1]; Compound A 50 mg/kg days 1 and 8, Day 19) was 116.6 mm3, the TGI % [1, 10] was 91.64% and 91.6% and the TV individual animal [1, 10] was 103 mm3. For the same compound, the “TV Mean” value ([1]; Compound A 50 mg/kg days 1 and 8, Day 22) was 125.6 mm3, the TGI % [1, 11] was 92.63% and 92.6% and the TV individual animal [1, 11] was 91 mm3. The “TV Mean” value ([1]; Compound A 50 mg/kg days 1 and 8, Day 26) was 165.7 mm3, the TV individual animal ([1]; Compound A 50 mg/kg days 1 and 8, Day 26, 50 mg/kg) was 116 mm3 and the “TV Mean” value ([1]; Compound A 50 mg/kg days 1 and 8, Day 31) was 318.9 mm3. For the same compound, the TV individual animal ([1]; Compound A 50 mg/kg days 1 and 8, Day 31, 50 mg/kg) was 256 mm3, the “TV Mean” value ([1]; Compound A 150 mg/kg days 1 and 8, Day 1) was 273.6 mm^3 and the TV individual animal ([1]; Compound A 150 mg/kg days 1 and 8, Day 1, 150 mg/kg) was 218 mm^3 and 266 mm^3 and 269 mm^3 and 295 mm^3 and 302 mm^3 and 335 mm^3 and 339 mm^3 and 353 mm^3 and 144 mm^3 and 215 mm^3. The “TV Mean” value ([1]; Compound A 150 mg/kg days 1 and 8, Day 5) was 353 mm^3, the TGI % [1, 12] was 12.19% and 12.9% and the TV individual animal [1, 12] was 291 mm^3 and 370 mm^3 and 363 mm^3 and 417 mm^3 and 376 mm^3 and 367 mm^3 and 406 mm^3 and 568 mm^3 and 147 mm^3 and 225 mm^3. For the same compound, the “TV Mean” value ([1]; Compound A 150 mg/kg days 1 and 8, Day 8) was 343.8 mm^3, the TGI % [1, 13] was 39.06% and 39.1% and the TV individual animal [1, 13] was 275 mm^3 and 362 mm^3 and 281 mm^3 and 413 mm^3 and 354 mm^3 and 393 mm^3 and 397 mm^3 and 595 mm^3 and 168 mm^3 and 200 mm^3. For the same compound, the TGI % [1, 14] was 65.44%, the “TV Mean” value [1, 14] was 250 mm^3 and the TGI % [1, 15] was 65.4%. For the same compound, the TV individual animal [1, 15] was 189 mm^3 and 236 mm^3 and 217 mm^3 and 318 mm^3 and 264 mm^3 and 322 mm^3 and 285 mm^3 and 436 mm^3 and 99 mm^3 and 134 mm^3, the “TV Mean” value ([1]; Compound A 150 mg/kg days 1 and 8, Day 16) was 109.7 mm^3 and the TGI % [1, 16] was 90.26% and 90.3%. For the same compound, the TV individual animal [1, 16] was 89 mm^3 and 108 mm^3 and 90 mm^3 and 132 mm^3 and 123 mm^3 and 138 mm^3 and 135 mm^3 and 173 mm^3 and 46 mm^3 and 63 mm^3, the “TV Mean” value ([1]; Compound A 150 mg/kg days 1 and 8, Day 19) was 77.9 mm^3 and the TGI % [1, 17] was 94.41% and 94.4%. The TV individual animal [1, 17] was 55 mm^3 and 100 mm^3 and 85 mm^3 and 95 mm^3 and 74 mm^3 and 121 mm^3 and 39 mm^3 and 135 mm^3 and 33 mm^3 and 42 mm^3, the “TV Mean” value ([1]; Compound A 150 mg/kg days 1 and 8, Day 22) was 63.5 mm^3 and the TGI % [1, 18] was 96.27% and 96.3%. The TV individual animal [1, 18] was 46 mm^3 and 64 mm^3 and 72 mm^3 and 85 mm^3 and 66 mm^3 and 89 mm^3 and 71 mm^3 and 68 mm^3 and 27 mm^3 and 47 mm^3, the “TV Mean” value ([1]; Compound A 150 mg/kg days 1 and 8, Day 26) was 51.8 mm^3 and the TV individual animal ([1]; Compound A 150 mg/kg days 1 and 8, Day 26, 150 mg/kg) was 45 mm^3 and 52 mm^3 and 68 mm^3 (2×) and 61 mm^3 and 83 mm^3 and 77 mm^3 and 41 mm^3 and 4 mm^3 and 19 mm^3. For the same compound, the “TV Mean” value ([1]; Compound A 150 mg/kg days 1 and 8, Day 31) was 13.5 mm^3, the TV individual animal ([1]; Compound A 150 mg/kg days 1 and 8, Day 31, 150 mg/kg) was 11 mm^3 and 17 mm^3 and 25 mm^3 and 6 mm^3 and 3 mm^3 and 44 mm^3 and 2 mm^3 and 27 mm^3 and 0 mm^3 (2×) and the AUC(0-inf) (in vivo) was 3.93 µM·h. For the same compound, the AUC(0-t) (in vivo) was 3.93 µM·h, the Cmax (in vivo) was 11.8 µM and the Vd (in vivo) was 0.0786 L/kg. The clearance (in vivo) was 4.82 mL/min/kg and the half-life (in vivo) was 59.1 min.
